Experiments:
PD-LID rat model = test: Dyskinesia-like symptom (AIMs) score in PD-LID rat model; assay type: in vivo; conditions: continuous subcutaneous infusion 60 mg/mL (mean 0.78 mg/kg/hour); day 0 of implanting the pump; vs solvent group
Description: To make a PD-LID rat model, a mixture of levodopa methyl ester hydrochloride (6 mg/kg; Sigma-Aldrich) dissolved in saline and benserazide hydrochloride (15 mg/kg; Sigma-Aldrich) (hereinafter, also referred to as “levodopa containing solution”) was intraperitoneally administered once daily to 6-OHDA-lesioned rats. The levodopa containing solution was repeatedly administered for 3 weeks or longer to observe and evaluate the behavior. The behavior was observed and evaluated in a transparent acrylic cage for 1 minute every 20 minutes after 20 minutes from the intraperitoneal administration of the levodopa containing solution, up until after 3 hours from administration. […] The sum of the scores for Limb AIMs, Axial AIMs, and Orolingual AIMs in 3 hours was used as the total dyskinesia-like symptom (AIMs) score. Individuals with a total AIMs score of less than 10 were excluded from the test as not manifesting a dyskinesia-like symptom. The behavior was observed and evaluated before the drug evaluation date. The rats were assigned to each dosing group by using the 3 hour total dyskinesia-like symptom (AIMs) score, Locomotive behavior score, and rat body weight as indicators, which were used for evaluation of drugs. […]
After 4 hours from application, a levodopa containing solution was intraperitoneally administered to observe and evaluate the behavior. Individuals with 50% or more of the tape agent coming off during the test were excluded from analysis. […]
As in Example 2, a levodopa containing solution was repeated administered to 6-0HDA-lesioned rats for 3 weeks or longer to observe and evaluate the behavior. The behavior was observed and evaluated before the drug evaluation date. The rats were assigned to each dosing group by using the 3 hour dyskinesia-like symptom (AIMs) score, Locomotive behavior score, and rat body weight as indicators, which were used for evaluation of drugs. However, individuals with a total AIMs score of less than 10 were excluded from the test as lacking manifestation of a dyskinesia-like symptom. Individuals with a body weight deviating 10% or more from the mean body weight were also excluded from the test to minimize variation in the dosage for each individual. […]
After 4 hours, a levodopa containing solution was administered to observe and evaluate the behavior. […]
The prepared solution was used after injection into an ALZET® Osmotic Pump MODEL 2ML2 (4.53 μL/hour; DURECT) for releasing a drug solution at a stable rate for 2 weeks. […]
The behavior was observed and evaluated using the same method as Example 2. […] After 5 minutes, a levodopa containing solution was intraperitoneally administered, and the behavior was observed and evaluated. The results in the drawings are indicated in terms of mean value […] standard error. The test results were statistically analyzed by comparison with the solvent administration group by Steel test using the total dyskinesia-like symptom (AIMs) score in 3 hours and total dyskinesia-like symptom score in 100 to 180 minutes as parameters. * indicates p<0.05, meaning that there is a significant difference.
The behavior was observed and evaluated using the same method in Example 2. […] The test results were statistically analyzed by comparison with the solvent administration group by Steel test by using the total dyskinesia-like symptom (AIMs) score in 3 hours and total dyskinesia-like symptom score in 100 to 180 minutes as parameters.

6-OHDA-lesioned rats = test: Prevention/suppression of dyskinesia-like symptoms during repeated levodopa administration; assay type: in vivo, rat; conditions: vs solvent group; for increase in total AIMs score associated with repeated administration of levodopa: days 3, 5, 9, 15
Description: The prepared solution was used after injection into an ALZET® Osmotic Pump MODEL 2ML2 (4.53 μL/hour; DURECT).
6-OHDA-lesioned rats were assigned to each administration group using the number of apomorphine hydrochloride hemihydrate induced rotations and body weight as indicators. […] The osmotic pump implanted subcutaneously was retrieved after the observation and evaluation of behavior on day 15. The behavior was also observed and evaluated on the following day (day 16 of repeated administration of levodopa).
The test results were statistically analyzed by comparison with the solvent administration group using Steel test with the total AIMs score on day 16 of repeated levodopa administration as the parameter. * indicates p<0.05 and ** indicates p<0.01, meaning that there is a significant difference compared to the solvent administration group.

In the case of tandospirone citrate, the “dyskinesia-like symptoms (total AIMs score in 3 hours)” value (PD-LID rat model) is reported as “Significant improvement in dyskinesia-like symptoms”, the “increase in total AIMs score associated with repeated administration of levodopa” value (6-OHDA-lesioned rats; continuous subcutaneous infusion 30 mg/mL (mean of 0.41 mg/kg/hour)) is reported as “suppressed the increase in total AIMs score” and the “total AIMs score on the day after completion of administration (day 16)” value (6-OHDA-lesioned rats; continuous subcutaneous infusion 30 mg/mL or 60 mg/mL, pump retrieved day 15) is reported as “significantly lower”. For the same substance, the “increase in total AIMs score associated with repeated administration of levodopa” value (6-OHDA-lesioned rats; continuous subcutaneous infusion 60 mg/mL (mean of 0.83 mg/kg/hour)) was “suppressed the increase in total AIMs score”.

— US11628169B2, “Therapeutic drug for motor complications in Parkinson's disease” (Sumitomo Pharma Co., Ltd., priority 2020, dated 2023)
